This is an account of results in patent publication US6013244A, “21-(2-oxo-tetrahydrofuran)-thio pregnane derivatives, a process for their production and pharmaceutical compositions containing them” (Glaxo Wellcome Inc., priority 1995, dated 2000).

One data set has as its system lung eosinophilia. Put plainly: Inhibition of lung eosinophilia in Brown Norway rats. It counts as in vivo. As to conditions: OVA-sensitised male Brown Norway rats, lung lavage on day 16. On the procedure: (i) Anti-inflammatory Activity--Inhibition of lung eosinophilia in Brown Norway rats
Male Brown norway rats (150-180 g) are sensitised with 1 ml intra-peritoneally (ip) containing 10 mg Al (OH)3 +1 mg Ovalbumin (OVA) on day 1. On day 7 each rat received 1 ml ip containing 10 mg Al(OH)3 +100 ug OVA. On day 14, each rat received an intratracheal (IT) dose of compound or vehicle (0.2 ml), under isoflurane anaesthesia. Compounds are suspended in 0.9% saline/0.2% Tween 80. 4 h after compound administration, each animal receives 400 ug OVA in saline IT (0.2 ml). On day 16, animals are killed and the lungs lavaged with 5 mls of lavage fluid (10 mM EDTA, phosphate buffered saline (pH 7.4), 5 units heparin/ml, 0.1% BSA). The samples are centrifuged at 1000 RPM for 10 minutes. The supernatant is removed and the cells resuspended in 0.5 ml lavage fluid. Total cells are counted with a Sysmex counter. Cytospin slides are prepared using 75 ul of the cell suspension and the cells are stained with May-Grunwald stain. Differential cell counts are performed using a microscope. Numbers of eosinophils are calculated per ul of lavage fluid per rat allowing percentage reduction in eosinophilia to be calculated.

Data set [1] concerns Adrenocorticotrophic hormone (ACTH). The data set can be described thus: Systemic Effects - ACTH Suppression in Adrenalectomised Rats. It counts as in vivo. As to conditions: adrenalectomised male CD rats, plasma. On the procedure:
(II) Systemic Effects--ACTH Suppression in Adrenalectomised Rats
Male CD rats (90-120 g) were adrenalectomised under Isoflurane anaesthesia and drinking water was supplemented with 0.9% saline. Four days later the animals receive a single intravenous dose of compound dissolved in DMA/PEG-200/distilled water (1:6:3) (0.2 ml) at 10 am. At 2 h and 4 h afterwards animals are sacrificed by administration of Euthetal and blood samples are taken by intra-cardiac puncture and collected into heparinised tubes. The samples are centrifuged (20 minutes at 1000 RPM at 4 deg C), the plasma is collected and assayed by Radioimmunoassay (RIA) for Adrenocorticotrophic hormone (ACTH) using a DPC double antibody RIA kit. Intact and vehicle control groups for each time point assessed were included in each experiment in order to account for diurnal variation in ACTH and effects of vehicle. Results are calculated with respect to the RIA standard curve and expressed as ACTH pg/ml plasma, allowing percentage reduction in ACTH to be calculated.

Data set [2] concerns the target T1, Human Glucocorticoid Receptor (Homo sapiens, UniProt P04150).
T1 construct: endogenous in cells; host or cells: HeLa cells stably transfected with the MMTV-LTR/sPAP reporter
T1 sequence (P04150 1-777): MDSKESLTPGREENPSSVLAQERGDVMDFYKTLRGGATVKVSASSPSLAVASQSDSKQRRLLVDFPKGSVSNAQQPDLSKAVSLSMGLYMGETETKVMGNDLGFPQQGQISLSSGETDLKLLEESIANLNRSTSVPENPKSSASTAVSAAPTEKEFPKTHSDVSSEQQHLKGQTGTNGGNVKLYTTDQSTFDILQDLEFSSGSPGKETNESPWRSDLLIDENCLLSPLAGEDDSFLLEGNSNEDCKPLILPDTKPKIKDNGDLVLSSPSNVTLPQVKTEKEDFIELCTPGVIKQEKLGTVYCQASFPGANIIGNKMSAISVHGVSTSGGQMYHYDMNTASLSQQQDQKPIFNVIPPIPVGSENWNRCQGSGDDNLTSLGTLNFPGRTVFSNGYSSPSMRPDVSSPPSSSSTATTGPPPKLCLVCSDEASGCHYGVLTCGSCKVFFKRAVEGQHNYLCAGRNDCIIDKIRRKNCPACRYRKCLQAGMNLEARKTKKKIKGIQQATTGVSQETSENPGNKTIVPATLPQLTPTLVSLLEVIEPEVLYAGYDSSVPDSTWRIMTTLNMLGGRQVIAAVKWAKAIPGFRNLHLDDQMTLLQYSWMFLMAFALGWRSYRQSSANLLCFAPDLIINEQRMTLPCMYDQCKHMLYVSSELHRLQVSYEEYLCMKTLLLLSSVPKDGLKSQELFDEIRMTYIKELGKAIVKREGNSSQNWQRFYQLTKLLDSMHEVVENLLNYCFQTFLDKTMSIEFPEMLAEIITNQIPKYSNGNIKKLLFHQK
The data set can be described thus: functional in vitro glucocorticoid assay, MMTV-sPAP reporter gene in transfected Hela cells. It counts as cell-based. On the procedure:
The functional assay used was a modification of the method described by T. S Berger et al, of J. of Steroid Biochem. Molec.
Thus, Hela cells were stably transfected with a detectable reporter gene (secreted placental alkaline phosphatase, sPAP) under the control of a glucocorticoid response promoter (the LTR of the mouse mammary tumour virus, MMTV). Various concentrations of standard (dexamethasone) or compounds of the invention were incubated with transfected Hela cells for 72 hours. At the end of the incubation, substrate ([…]) for sPAP was added and the product measured by a spectrophotometric method. Increased absorbance reflected increased sPAP transcription and concentration-response lines were constructed such that EC50 -values could be estimated.
Background: In a reporter assay the amount or activity of a reporter protein is the signal.

[3] abbreviates: dose 6.25 μg single intravenous.

Regarding `CCCC1O[C@@H]2C[C@H]3[C@@H]4CCC5=CC(=O)C=C[C@]5(C)[C@H]4[C@@H](O)C[C@]3(C)[C@]2(C(=O)CO)O1` (stereo partly drawn) [Budesonide, reference compound], the “% Reduction in Eosinophilia” value in the data set on lung eosinophilia (dose 250 μg intratracheal) came to 82%. For the same compound, in data set [1] (setting [3]), the “% Reduction in ACTH at 2 h” value is on record as 61% and the “% Reduction in ACTH at 4 h” value is on record as 32%.

For `CCC[C@@H]1O[C@@H]2C[C@H]3[C@@H]4C[C@H](F)C5=CC(=O)CC[C@]5(C)[C@@]4(F)[C@@H](O)C[C@]3(C)[C@]2(C(=O)CSC2CCOC2=O)O1` (stereo partly drawn) [Example 8, 16α,17α-(R-Butylidenedioxy)-6α,9α-difluoro-11β-hydroxy-21-(2-oxo-tetrahydro-furan-3-yl-sulfanyl)-pregn-4-ene-3,20-dione], in data set [2], the EC50 – broadly, the concentration needed to bring the measured effect to its halfway point – was below 600 nM.

In data set [2], `CCC[C@@H]1O[C@@H]2C[C@H]3[C@@H]4C[C@H](F)C5=CC(=O)CC[C@]5(C)[C@@]4(F)[C@@H](O)C[C@]3(C)[C@]2(C(=O)CSC2COC(=O)C2)O1` (stereo partly drawn) [Example 11, 16α,17α-(R-Butylidenedioxy)-6α,9α-difluoro-11β-hydroxy-21-(2-oxo-tetrahydro-furan-4-yl-sulfanyl)-pregn-4-ene-3,20-dione] registered an EC50 below 600 nM.

The compound `CCC[C@@H]1O[C@@H]2C[C@H]3[C@@H]4C[C@H](F)C5=CC(=O)C=C[C@]5(C)[C@@]4(F)[C@@H](O)C[C@]3(C)[C@]2(C(=O)CSC2CCOC2=O)O1` (stereo partly drawn) [Example 7, 16α,17α-(R-Butylidenedioxy)-6α,9α-difluoro-11β-hydroxy-21-(2-oxo-tetrahydro-furan-3-yl-sulfanyl)-pregna-1,4-diene-3,20-dione] registered an EC50 in data set [2] below 600 nM.

For `CCC(=O)O[C@]1(C(=O)CSC2CCOC2=O)[C@H](C)C[C@H]2[C@@H]3C[C@H](F)C4=CC(=O)C=C[C@]4(C)[C@@]3(F)[C@@H](O)C[C@@]21C` (stereo partly drawn) [Example 1, 6α,9α-Difluoro-11β-hydroxy-16α-methyl-21-(2-oxo-tetrahydro-furan-3-yl-sulfanyl)-17α-propionyloxy-pregna-1,4-diene-3,20-dione], the EC50 in data set [2] is below 600 nM.

As to `CC1(C)O[C@@H]2C[C@H]3[C@@H]4C[C@H](F)C5=CC(=O)C=C[C@]5(C)[C@@]4(F)[C@@H](O)C[C@]3(C)[C@]2(C(=O)CS[C@H]2CCOC2=O)O1` (single isomer, unassigned) [Example 3 Isomer A, 6α,9α-Difluoro-11β-hydroxy-16α,17α-isopropylidenedioxy-21-(2-oxo-tetrahydro-furan-3S-yl-sulfanyl)-pregna-1,4-diene-3,20-dione], the “% Reduction in Eosinophilia” value with lung eosinophilia (dose 250 μg intratracheal) was 74%. Also, in the data set on lung eosinophilia (dose 750 μg intratracheal), the “% Reduction in Eosinophilia” value was found to be 97%. Also, in data set [1] (dose 500 μg single intravenous), the “% Reduction in ACTH at 2 h” value was found to be 16% and the “% Reduction in ACTH at 4 h” value was found to be 15%.

In data set [2], `CCCC1O[C@@H]2C[C@H]3[C@@H]4CCC5=CC(=O)C=C[C@]5(C)[C@H]4[C@@H](O)C[C@]3(C)[C@]2(C(=O)CSC2CCOC2=O)O1` (single isomer, unassigned) [Example 9 isomer A, 16α,17α-Butylidenedioxy-11β-hydroxy-21-(2-oxo-tetrahydrofuran-3-yl-sulfanyl)-pregna-1,4-diene-3,20-dione] showed an EC50 below 600 nM.

`CC1(C)O[C@@H]2C[C@H]3[C@@H]4C[C@H](F)C5=CC(=O)C=C[C@]5(C)[C@@]4(F)[C@@H](O)C[C@]3(C)[C@]2(C(=O)CSC2COC(=O)C2)O1` (stereo partly drawn) [Example 10, 6α,9α-Difluoro-11β-hydroxy-16α,17α-isopropylidenedioxy-21-(2-oxo-tetrahydro-furan4-yl-sulfanyl)-pregna-1,4-diene-3,20-dione] showed an EC50 in data set [2] below 600 nM.

For the compound `CC1(C)O[C@@H]2C[C@H]3[C@@H]4C[C@H](F)C5=CC(=O)CC[C@]5(C)[C@@]4(F)[C@@H](O)C[C@]3(C)[C@]2(C(=O)CSC2CCOC2=O)O1` (stereo partly drawn) [Example 6, 6α,9α-Difluoro-11β-hydroxy-16α,17α-isopropylidenedioxy-21-(2-oxo-tetrahydro-furan-3-yl-sulfanyl)-pregn-4-ene-3,20-dione], the EC50 in data set [2] is below 600 nM.

Take `CCC(=O)O[C@]1(C(=O)CSC2CCOC2=O)[C@H](C)C[C@H]2[C@@H]3C[C@H](F)C4=CC(=O)CC[C@]4(C)[C@@]3(F)[C@@H](O)C[C@@]21C` (stereo partly drawn) [Example 2, 6α,9α-Difluoro-11β-hydroxy-16α-methyl-21-(2-oxo-tetrahydro-furan-3-yl-sulfanyl)-17α-propionyloxy-pregn-4-ene-3,20-dione]: in data set [2], the EC50 was below 600 nM.
